≈ marks a conversion by molar mass, not a printed value. Values belong to the compound of their own block, whether it stands above or below them.
How the values were obtained:
[1] = target: T1, Neuropeptide Y receptor type 5 (Homo sapiens, UniProt Q15761); assay: Displacement of [125I]PYY from human recombinant NPYY5 receptor expressed in mouse LMtk cells; format: cell-based
T1 sequence (Q15761 whole entry): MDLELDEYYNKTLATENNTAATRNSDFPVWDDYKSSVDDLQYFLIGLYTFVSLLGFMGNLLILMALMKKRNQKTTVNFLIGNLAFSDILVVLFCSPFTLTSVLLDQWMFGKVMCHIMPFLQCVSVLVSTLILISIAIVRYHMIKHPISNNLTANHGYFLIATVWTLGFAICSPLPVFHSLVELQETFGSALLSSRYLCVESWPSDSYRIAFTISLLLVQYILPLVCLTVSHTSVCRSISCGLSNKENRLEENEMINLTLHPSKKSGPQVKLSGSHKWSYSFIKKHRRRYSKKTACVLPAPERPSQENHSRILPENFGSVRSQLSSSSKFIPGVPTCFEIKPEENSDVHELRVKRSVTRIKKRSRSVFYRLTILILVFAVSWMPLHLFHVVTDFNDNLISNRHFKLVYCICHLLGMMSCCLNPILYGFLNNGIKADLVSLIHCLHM

[2] = target: Neuropeptide Y receptor type 4 (Homo sapiens, UniProt P50391); assay: Inhibition of NPYY4 receptor
Neuropeptide Y receptor type 4, sequence (P50391 whole entry): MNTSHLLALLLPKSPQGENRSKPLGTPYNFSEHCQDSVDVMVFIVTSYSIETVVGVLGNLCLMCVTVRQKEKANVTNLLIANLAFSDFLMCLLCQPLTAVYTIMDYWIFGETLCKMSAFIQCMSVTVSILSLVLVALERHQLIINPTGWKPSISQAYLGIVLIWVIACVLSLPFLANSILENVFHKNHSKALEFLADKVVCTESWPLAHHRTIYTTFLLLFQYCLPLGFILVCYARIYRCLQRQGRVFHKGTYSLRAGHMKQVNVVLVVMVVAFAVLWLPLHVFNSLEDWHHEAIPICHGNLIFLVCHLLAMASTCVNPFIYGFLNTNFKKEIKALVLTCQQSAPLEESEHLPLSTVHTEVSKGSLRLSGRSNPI

[3] = Solubility in 0.2 M phosphate buffer at pH 6.8; format: physicochemical
[4] = Plasma concentration in rat plasma at 10 mg/kg, po after 2 hrs; format: ADME, organism-based; set-up: dose 10 mg/kg, route oral; conditions: read-out: Drug uptake
[5] = target: T2, Neuropeptide Y receptor type 2 (Homo sapiens, UniProt P49146); assay: Inhibition of NPYY2 receptor
T2 sequence (P49146 whole entry): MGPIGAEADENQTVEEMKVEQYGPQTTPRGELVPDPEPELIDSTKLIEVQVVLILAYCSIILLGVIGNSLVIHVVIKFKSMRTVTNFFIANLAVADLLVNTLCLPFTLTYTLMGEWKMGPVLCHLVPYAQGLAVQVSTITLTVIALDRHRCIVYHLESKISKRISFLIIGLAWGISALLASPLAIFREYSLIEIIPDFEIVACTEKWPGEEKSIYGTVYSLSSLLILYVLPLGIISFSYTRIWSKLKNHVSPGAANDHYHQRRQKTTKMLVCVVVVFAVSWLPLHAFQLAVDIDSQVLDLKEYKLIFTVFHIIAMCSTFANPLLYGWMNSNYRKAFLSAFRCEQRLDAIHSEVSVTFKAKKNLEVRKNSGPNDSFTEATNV

[6] = Selectivity for human NPYY5 receptor over NPYY2 receptor
[7] = target: T3, Neuropeptide Y receptor type 1 (Homo sapiens, UniProt P25929); assay: Inhibition of NPYY1 receptor
T3 sequence (P25929 whole entry): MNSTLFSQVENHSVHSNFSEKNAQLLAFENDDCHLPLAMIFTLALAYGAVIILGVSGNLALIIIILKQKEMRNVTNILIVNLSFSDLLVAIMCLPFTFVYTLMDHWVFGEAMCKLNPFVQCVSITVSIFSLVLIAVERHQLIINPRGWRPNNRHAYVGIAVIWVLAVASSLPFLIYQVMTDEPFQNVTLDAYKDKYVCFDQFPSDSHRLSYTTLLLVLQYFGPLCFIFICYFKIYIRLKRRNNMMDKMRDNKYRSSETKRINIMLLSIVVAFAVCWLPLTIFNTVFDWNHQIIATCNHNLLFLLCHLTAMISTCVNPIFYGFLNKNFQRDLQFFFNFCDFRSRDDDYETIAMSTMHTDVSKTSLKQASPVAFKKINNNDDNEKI

[8] = Plasma concentration in rat plasma at 10 mg/kg, po after 4 hrs; format: ADME, organism-based; set-up: dose 10 mg/kg, route oral; conditions: read-out: Drug uptake
[9] = Selectivity for human NPYY5 receptor over NPYY1 receptor
[10] = target: T1, Neuropeptide Y receptor type 5; assay: Antagonist activity at human recombinant NPYY5 receptor expressed in mouse LMtk cells assessed as inhibition of NPY-induced calcium increase; format: functional, cell-based
[11] = Ratio of drug level in brain to plasma in rat at 10 mg/kg, po after 2 hrs; format: ADME, organism-based; set-up: dose 10 mg/kg, route oral
[12] = Selectivity for human NPYY5 receptor over NPYY4 receptor
[13] = Plasma concentration in rat plasma at 2.7 mg/kg, iv after 10 mins; format: ADME, organism-based; set-up: dose 2.7 mg/kg, route intravenous; conditions: read-out: Drug uptake
[14] = tested on: Brain; assay: Drug level in rat brain at 2.7 mg/kg, iv after 10 mins; format: ADME, organism-based; set-up: dose 2.7 mg/kg, route intravenous; conditions: in vivo
[15] = Ratio of drug level in brain to plasma at 2.7 mg/kg, iv after 10 mins; format: ADME, organism-based; set-up: dose 2.7 mg/kg, route intravenous; conditions: rat, read-out: BPR

Structure (SMILES): Cc1nnc(-c2ccc3[nH]c([C@H]4CC[C@]5(CC4)OC(=O)c4ccccc45)nc3c2)o1
IC50 [1]: 1000 nM

Structure (SMILES): N#Cc1ccc2[nH]c([C@H]3CC[C@@]4(CC3)OC(=O)c3ccccc34)nc2c1
IC50 [1]: 20 nM

Structure (SMILES): O=C1O[C@]2(CC[C@H](c3nc4ccccc4[nH]3)CC2)c2ccccc21
IC50 [1]: 91 nM

Structure (SMILES): Cn1nnc(-c2ccc3[nH]c([C@H]4CC[C@@]5(CC4)OC(=O)c4ccccc45)nc3c2)n1
IC50 [2]: > 10000 nM
solubility [3]: 5.9 µg/mL (≈ 14.7 µM)
concentration at 2 h [4]: 3200 nM
IC50 [1]: 5.9 nM
IC50 [5]: > 10000 nM
Selectivity ratio [6]: 1000
IC50 [7]: > 10000 nM
concentration at 4 h [8]: 990 nM
Selectivity ratio [9]: 1000
IC50 [10]: 7.2 nM
Kp at 2 h [11]: 0.12
Selectivity ratio [12]: 1000

Structure (SMILES): O=C1O[C@]2(CC[C@H](c3nc4cc(-c5nnco5)ccc4[nH]3)CC2)c2ccccc21
IC50 [1]: 15 nM

Structure (SMILES): O=C(c1ccccc1)c1ccc2[nH]c([C@H]3CC[C@@]4(CC3)OC(=O)c3ccccc34)nc2c1
IC50 [1]: 2.4 nM

Structure (SMILES): O=C1O[C@]2(CC[C@H](c3nc4ccc(-c5ccccc5)cc4[nH]3)CC2)c2ccccc21
IC50 [1]: 2.3 nM

Structure (SMILES): O=C1O[C@]2(CC[C@H](c3nc4cc(Br)ccc4[nH]3)CC2)c2ccccc21
IC50 [1]: 45 nM

Structure (SMILES): Cn1c2cc(Cl)c(Cl)cc2nc1[C@H]1CC[C@@]2(CC1)OC(=O)c1ccccc12
IC50 [1]: > 1000 nM

Structure (SMILES): COC(=O)c1cc2[nH]c([C@H]3CC[C@]4(CC3)OC(=O)c3ccccc34)nc2cc1Cl
IC50 [1]: 1000 nM

Structure (SMILES): O=C1O[C@]2(CC[C@H](c3nc4cc(-c5ccccn5)ccc4[nH]3)CC2)c2ccccc21
IC50 [1]: 2.4 nM

Structure (SMILES): O=C1O[C@]2(CC[C@H](c3nc4cc(Cl)c(Cl)cc4[nH]3)CC2)c2ccccc21
IC50 [1]: 8 nM

Structure (SMILES): O=C1O[C@]2(CC[C@H](c3nc4cc(Cl)c(-c5ccccc5)cc4[nH]3)CC2)c2ccccc21
IC50 [1]: 2.2 nM

Structure (SMILES): Cc1nnc(-c2ccc3[nH]c([C@H]4CC[C@@]5(CC4)OC(=O)c4ccccc45)nc3c2)o1
IC50 [2]: > 10000 nM
solubility [3]: 0.94 µg/mL (≈ 2.35 µM)
concentration at 2 h [4]: 1400 nM
IC50 [1]: 3.3 nM
IC50 [5]: > 10000 nM
Selectivity ratio [6]: 1000
IC50 [7]: > 10000 nM
concentration at 4 h [8]: 850 nM
Selectivity ratio [9]: 1000
IC50 [10]: 5.5 nM
Kp at 2 h [11]: 0.05
Selectivity ratio [12]: 1000

Structure (SMILES): O=C1O[C@]2(CC[C@H](c3nc4cc(Cl)ccc4[nH]3)CC2)c2ccccc21
IC50 [1]: 39 nM

The remaining lines, values ahead:

IC50 [1]: 2.1 nM
Structure (SMILES): O=C1O[C@]2(CC[C@H](c3nc4cc(-c5noc(C(F)(F)F)n5)ccc4[nH]3)CC2)c2ccccc21

IC50 [1]: 3.1 nM
Structure (SMILES): O=C1O[C@]2(CC[C@H](c3nc4cc(-c5cccnc5)ccc4[nH]3)CC2)c2ccccc21

IC50 [1]: 1.7 nM
Structure (SMILES): O=C1O[C@]2(CC[C@H](c3nc4ccc(-c5ccc(F)cc5)cc4[nH]3)CC2)c2ccccc21

IC50 [1]: 2.2 nM
Structure (SMILES): COC(=O)c1cc2[nH]c([C@H]3CC[C@@]4(CC3)OC(=O)c3ccccc34)nc2cc1Cl

solubility [3]: 0.6 µg/mL (≈ 1.59 µM)
IC50 [1]: 7.7 nM
concentration at 10 min [13]: 3100 nM
Drug uptake [14]: 1.7 nmol/g
Kp at 10 min [15]: 0.55
Structure (SMILES): COC(=O)c1ccc2[nH]c([C@H]3CC[C@@]4(CC3)OC(=O)c3ccccc34)nc2c1

IC50 [2]: > 10000 nM
concentration at 2 h [4]: 400 nM
IC50 [1]: 5.1 nM
IC50 [5]: > 10000 nM
Selectivity ratio [6]: 1000
IC50 [7]: > 10000 nM
Selectivity ratio [9]: 1000
IC50 [10]: 7 nM
Selectivity ratio [12]: 1000
Structure (SMILES): Cc1nc(-c2ccc3[nH]c([C@H]4CC[C@@]5(CC4)OC(=O)c4ccccc45)nc3c2)no1

IC50 [1]: 4.5 nM
Structure (SMILES): COC(=O)c1ccc2[nH]c([C@H]3CC[C@@]4(CC3)OC(=O)c3ccccc34)nc2c1Cl

solubility [3]: < 0.01 µg/mL
IC50 [1]: 2.6 nM
Structure (SMILES): O=C1O[C@]2(CC[C@H](c3nc4cc(Cl)c(C(F)(F)F)cc4[nH]3)CC2)c2ccccc21

IC50 [1]: 47 nM
Structure (SMILES): O=C1O[C@]2(CC[C@H](c3nc4cc(C(F)(F)F)ccc4[nH]3)CC2)c2ccccc21

Source: ChEMBL document CHEMBL1144170, “Syntheses and structure-activity relationships of novel, potent, and selective trans-2-[3-oxospiro[isobenzofuran-1(3H),1'-cyclohexan]-4'-yl]benzimidazole NPY Y5 receptor antagonists” (Bioorg Med Chem Lett, 2008)
